Results taken from patent US10696651B2, “Heterocyclic compound” (Takeda Pharmaceutical Company Limited, priority 2016, dated 2020).
Where a name gives a salt, the structure may show the parent alone. Read-outs that look alike come from different tables or passages of the source.

Key:
[1] = molecular target: T1, human GCN2 full-length protein (Homo sapiens, UniProt Q9P2K8); test: GCN2 enzyme inhibition assay (LanthaScreen TR-FRET); assay type: biochemical; details: GCN2 enzyme inhibitory activity at compound concentration of 3 μM; for inhibition at 3 µM: read-out: inhibitory rate
T1 construct: purchased Carna Biosciences, Inc
T1 sequence (Q9P2K8 whole entry): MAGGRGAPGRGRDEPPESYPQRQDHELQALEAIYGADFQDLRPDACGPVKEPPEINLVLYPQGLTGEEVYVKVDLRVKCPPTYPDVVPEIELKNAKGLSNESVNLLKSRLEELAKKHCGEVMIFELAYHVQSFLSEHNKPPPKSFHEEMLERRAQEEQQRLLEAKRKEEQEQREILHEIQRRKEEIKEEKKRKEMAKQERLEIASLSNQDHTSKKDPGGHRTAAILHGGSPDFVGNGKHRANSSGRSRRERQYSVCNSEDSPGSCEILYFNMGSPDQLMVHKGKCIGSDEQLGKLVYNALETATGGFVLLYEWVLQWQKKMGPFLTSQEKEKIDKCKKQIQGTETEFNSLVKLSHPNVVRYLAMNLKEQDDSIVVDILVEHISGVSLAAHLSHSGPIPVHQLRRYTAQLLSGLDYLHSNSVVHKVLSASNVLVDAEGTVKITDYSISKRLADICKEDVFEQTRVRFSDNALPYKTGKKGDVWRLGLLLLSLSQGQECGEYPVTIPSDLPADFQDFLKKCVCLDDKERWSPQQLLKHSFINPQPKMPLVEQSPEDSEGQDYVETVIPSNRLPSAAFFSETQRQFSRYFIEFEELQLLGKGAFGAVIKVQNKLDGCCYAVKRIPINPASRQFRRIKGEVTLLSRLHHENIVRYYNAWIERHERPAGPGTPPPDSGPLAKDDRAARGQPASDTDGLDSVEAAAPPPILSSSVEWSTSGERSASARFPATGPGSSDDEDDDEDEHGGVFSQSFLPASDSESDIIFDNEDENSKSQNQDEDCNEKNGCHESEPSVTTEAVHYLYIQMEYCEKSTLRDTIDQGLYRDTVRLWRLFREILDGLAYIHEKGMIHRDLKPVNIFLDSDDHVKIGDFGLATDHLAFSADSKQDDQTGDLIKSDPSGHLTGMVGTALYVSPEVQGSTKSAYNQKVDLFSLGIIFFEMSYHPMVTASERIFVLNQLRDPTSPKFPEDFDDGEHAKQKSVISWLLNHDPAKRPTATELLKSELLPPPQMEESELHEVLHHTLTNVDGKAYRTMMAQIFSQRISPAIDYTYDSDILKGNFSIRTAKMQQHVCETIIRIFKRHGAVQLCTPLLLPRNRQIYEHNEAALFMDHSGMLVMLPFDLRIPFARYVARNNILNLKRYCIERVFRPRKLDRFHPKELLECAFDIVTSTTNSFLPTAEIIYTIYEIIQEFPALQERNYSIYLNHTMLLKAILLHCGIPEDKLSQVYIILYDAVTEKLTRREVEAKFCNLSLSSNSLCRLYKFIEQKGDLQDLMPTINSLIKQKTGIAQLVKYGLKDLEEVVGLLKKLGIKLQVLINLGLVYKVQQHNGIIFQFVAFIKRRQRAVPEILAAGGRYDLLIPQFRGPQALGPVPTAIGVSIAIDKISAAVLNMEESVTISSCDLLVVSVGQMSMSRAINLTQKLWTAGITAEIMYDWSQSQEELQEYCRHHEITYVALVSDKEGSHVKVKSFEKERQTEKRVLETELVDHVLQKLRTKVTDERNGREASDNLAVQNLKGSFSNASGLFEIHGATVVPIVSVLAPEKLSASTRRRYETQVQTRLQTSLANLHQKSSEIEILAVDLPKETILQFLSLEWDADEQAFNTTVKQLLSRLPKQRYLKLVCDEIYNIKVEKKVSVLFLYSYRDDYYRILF
Procedure: GCN2 enzyme was preserved at -70° C. and used. The GCN2 enzyme inhibitory activity of the test compound was measured by the LanthaScreenTR-FRET (Time Resolved Fluorescence Resonance Energy Transfer) method (manufactured by ThermoFisher). […] Then, GCN2 enzyme solution diluted with the assay buffer was added by 2 μL to each well. The enzyme solution was not added to a part of the wells to give a control group. After incubation at room temperature for 1 hr, 570 μM ATP solution containing 390 nM […] physiological protein substrate (ThermoFisher) was added by 2 μL. After reaction at room temperature for 1 hr, TR-FRET Dilution Buffer (ThermoFisher) containing 4 nM Terbium-labeled anti-elF2alpha [[…]] antibody (ThermoFisher) dissolved therein was added by 2 μL to each well. After standing at room temperature for 1 hr, time decomposition fluorescence measurement was performed on platereader Envision (manufactured by PerkinElmer).

[2] = tested on: osteosarcoma cell line U-2-OS; test: In vitro cell proliferation inhibition assay (CellTiter-Glo, low amino acid media); assay type: cell-based; details: McCoy's 5A low amino acid media; for inhibition at 0.1 µM: Homo sapiens, U2OS, 72 h, cell proliferation inhibitory rate; for inhibitory rate: 72 hr
Procedure: A cell suspension (40 μL) (1000 cells/well) of osteosarcoma cell line U-2-OS obtained from ATCC (American Type Culture Collection) was seeded on a 384 plate using McCoy's 5A low amino acid media (amino acid content 25%). The seeded cells were incubated (37° C., 5% CO2) overnight to 24 hr at the longest. Each example compound was dissolved (10 mM) in DMSO, delivered to wells by using TECAN HP D300 (TECAN), and the plate was incubated for 72 hr (37° C., 5% CO2). A well without addition of compound was treated similarly as a control group. Celltiter-Glo (registered trade mark) Luminescent Cell Viability Assay reagent (Promega KK) equilibrated at room temperature was added (40 μL/well) to cells in each well before compound treatment (untreated group) and 72 hours after compound treatment. After incubation for 10 min, cell proliferation inhibitory rate was measured by the amount of ATP which is a cell viability marker. Luminescence of cells showing ATP amount was measured using ARVO MX (PerkinElmer). Based on the luminescence values of the untreatment group, the control group without addition of Example compound solution, and the treatment group with addition of Example compound, the cell proliferation inhibitory rate (%) of the test compound at a compound concentration of 100 nM was calculated by the following formula and the results thereof are shown in Tables 4-1, 4-2. Inhibitory rate (%)=(1−(luminescence value of treatment group−luminescence value of untreatment group)÷(luminescence value of control group−luminescence value of untreatment group))×100

SMILES | inhibition at 3 µM ([1]; Table 3-2) | inhibition at 0.1 µM ([2]; Table 4-2) | inhibition at 0.1 µM ([2]; Table 4-1) | other results
CCNc1ncc(C#Cc2c(F)ccc(NS(=O)(=O)c3cc(Cl)cc(CO)c3OC)c2F)cn1 [Example 137, 5-chloro-N-(3-((2-(ethylamino)pyrimidin-5-yl)ethynyl)-2,4-difluorophenyl)-3-(hydroxymethyl)-2-methoxybenzenesulfonamide] | 99% | 75% | – | –
CNc1ncc(Cl)cc1S(=O)(=O)Nc1ccc(F)c(C#Cc2cnc(N[C@H](C)CO)nc2)c1F [Example 183, 5-chloro-N-(2,4-difluoro-3-((2-(((2R)-1-hydroxypropan-2-yl)amino)pyrimidin-5-yl)ethynyl)phenyl)-2-(methylamino)pyridine-3-sulfonamide] | 103% | 77% | – | –
O=S(=O)(Nc1ccc(F)c(C#Cc2cnc(NC3COC3)nc2)c1F)c1cc(Cl)cc(CO)c1Cl [Example 181, 2,5-dichloro-N-(2,4-difluoro-3-((2-(oxetan-3-ylamino)pyrimidin-5-yl)ethynyl)phenyl)-3-(hydroxymethyl)benzenesulfonamide] | 102% | 80% | – | –
COc1c(CO)cc(Cl)cc1S(=O)(=O)Nc1ccc(F)c(C#Cc2cnc(NCC3CCOC3)nc2)c1F (centres unmarked) [Example 145, 5-chloro-N-(2,4-difluoro-3-((2-((tetrahydrofuran-3-ylmethyl)amino)pyrimidin-5-yl)ethynyl)phenyl)-3-(hydroxymethyl)-2-methoxybenzenesulfonamide] | 99% | 69% | – | –
COc1ncc(Cl)cc1S(=O)(=O)Nc1ccc(F)c(C#Cc2cnc3[nH]ncc3c2)c1F [Example 5, 5-chloro-N-(2,4-difluoro-3-(1H-pyrazolo[3,4-b]pyridin-5-ylethynyl)phenyl)-2-methoxypyridine-3-sulfonamide] | – | – | 91% | inhibition at 3 µM ([1]; Table 3-1): 99%
CNc1ncc(Cl)cc1S(=O)(=O)Nc1ccc(F)c(C#Cc2cnc(N)nc2)c1F [Example 171, N-(3-((2-aminopyrimidin-5-yl)ethynyl)-2,4-difluorophenyl)-5-chloro-2-(methylamino)pyridine-3-sulfonamide] | 100% | 82% | – | –
O=S(=O)(Nc1ccc(F)c(C#Cc2cnc3[nH]ncc3c2)c1F)c1cc(Cl)ccc1F [Example 26, 5-chloro-N-(2,4-difluoro-3-(1H-pyrazolo[3,4-b]pyridin-5-ylethynyl)phenyl)-2-fluorobenzenesulfonamide TFA Salt] | – | – | 41% | inhibition at 3 µM ([1]; Table 3-1): 99%
Cc1ccc(Cl)cc1S(=O)(=O)Nc1ccc(F)c(C#Cc2cnc3[nH]ncc3c2)c1F [Example 15, 5-chloro-N-(2,4-difluoro-3-(1H-pyrazolo[3,4-b]pyridin-5-ylethynyl)phenyl)-2-methylbenzenesulfonamide] | – | – | 75% | inhibition at 3 µM ([1]; Table 3-1): 100%
O=S(=O)(Nc1ccc(F)c(C#Cc2cnc3[nH]ncc3c2)c1F)c1cccc(Cl)c1Cl [Example 38, 2,3-dichloro-N-(2,4-difluoro-3-(1H-pyrazolo[3,4-b]pyridin-5-ylethynyl)phenyl)benzenesulfonamide TFA Salt] | – | – | 22% | inhibition at 3 µM ([1]; Table 3-1): 99%
O=S(=O)(Nc1ccc(F)c(C#Cc2cnc3[nH]ncc3c2)c1F)c1cc(Cl)cc(Cl)c1Cl [Example 20, 2,3,5-trichloro-N-(2,4-difluoro-3-(1H-pyrazolo[3,4-b]pyridin-5-ylethynyl)phenyl)benzenesulfonamide] | – | – | 63% | inhibition at 3 µM ([1]; Table 3-1): 100%
Cn1ncc2c(S(=O)(=O)Nc3ccc(F)c(C#Cc4cnc(N)nc4)c3F)cc(Cl)cc21 [Example 192, N-(3-((2-aminopyrimidin-5-yl)ethynyl)-2,4-difluorophenyl)-6-chloro-1-methyl-1H-indazole-4-sulfonamide] | – | 43% | – | –
COc1c(CO)cc(Cl)cc1S(=O)(=O)Nc1ccc(F)c(C#Cc2cnc(NC3CC3)nn2)c1F [Example 168, 5-chloro-N-(3-((3-(cyclopropylamino)-1,2,4-triazin-6-yl)ethynyl)-2,4-difluorophenyl)-3-(hydroxymethyl)-2-methoxybenzenesulfonamide] | 99% | 57% | – | –
Nc1ncc(C#Cc2c(F)ccc(NS(=O)(=O)c3cc(Cl)cn4c(Cl)cnc34)c2F)cn1 [Example 165, N-(3-((2-aminopyrimidin-5-yl)ethynyl)-2,4-difluorophenyl)-3,6-dichloroimidazo[1,2-a]pyridine-8-sulfonamide] | 96% | 27% | – | –
COc1c(CO)cc(Cl)cc1S(=O)(=O)Nc1ccc(F)c(C#Cc2cnc(NC3CCOC3)nc2)c1F (centres unmarked) [Example 141, 5-chloro-N-(2,4-difluoro-3-((2-(tetrahydrofuran-3-ylamino)pyrimidin-5-yl)ethynyl)phenyl)-3-(hydroxymethyl)-2-methoxybenzenesulfonamide] | 99% | 75% | – | –
Nc1ncc(C#Cc2c(F)ccc(NS(=O)(=O)c3cc(Cl)cc4c3OCC4O)c2F)cn1 (centres unmarked) [Example 159, N-(3-((2-aminopyrimidin-5-yl)ethynyl)-2,4-difluorophenyl)-5-chloro-3-hydroxy-2,3-dihydro-1-benzofuran-7-sulfonamide] | 99% | 60% | – | –
C[C@H](CO)Nc1ncc(C#Cc2c(F)ccc(NS(=O)(=O)c3cc(Cl)cc4c3OCC4O)c2F)cn1 (stereo partly drawn) [Example 184, 5-chloro-N-(2,4-difluoro-3-((2-(((2R)-1-hydroxypropan-2-yl)amino)pyrimidin-5-yl)ethynyl)phenyl)-3-hydroxy-2,3-dihydro-1-benzofuran-7-sulfonamide] | 99% | – | – | inhibitory rate ([2]; Table 4-2): 59%
O=S(=O)(Nc1ccc(F)c(C#Cc2cnc(N[C@H]3CC[C@H](O)CC3)nc2)c1F)c1cc(Cl)cc2c1OCC2O (stereo partly drawn) [Example 190, 5-chloro-N-(2,4-difluoro-3-((2-((trans-4-hydroxycyclohexyl)amino)pyrimidin-5-yl)ethynyl)phenyl)-3-hydroxy-2,3-dihydro-1-benzofuran-7-sulfonamide] | – | – | – | inhibitory rate ([1]; Table 3-2, 3 µM): 99%; inhibitory rate ([2]; Table 4-2): 65%
Cc1ccc(Cl)cc1S(=O)(=O)Nc1ccc(F)c(C#Cc2cnc(N)c(C)n2)c1F [Example 31, N-(3-((5-amino-6-methylpyrazin-2-yl)ethynyl)-2,4-difluorophenyl)-5-chloro-2-methylbenzenesulfonamide] | – | – | 53% | inhibition at 3 µM ([1]; Table 3-1): 99%
C[C@H](CO)Nc1ncc(C#Cc2c(F)ccc(NS(=O)(=O)c3cc(Cl)cc4c3OCC4O)c2F)cn1 (stereo partly drawn) [Example 187, 5-chloro-N-(2,4-difluoro-3-((2-(((2R)-1-hydroxypropan-2-yl)amino)pyrimidin-5-yl)ethynyl)phenyl)-3-hydroxy-2,3-dihydro-1-benzofuran-7-sulfonamide] | – | – | – | inhibitory rate ([2]; Table 4-2): 64%
Nc1ncc(C#Cc2c(F)ccc(NS(=O)(=O)c3cc(Cl)ccc3Cl)c2F)cn1 [Example 13, N-(3-((2-aminopyrimidin-5-yl)ethynyl)-2,4-difluorophenyl)-2,5-dichlorobenzenesulfonamide TFA Salt] | – | – | 70% | –
COc1c(CO)cc(Cl)cc1S(=O)(=O)Nc1ccc(F)c(C#Cc2cnc(NCC3(O)CC3)nc2)c1F [Example 154, 5-chloro-N-(2,4-difluoro-3-((2-(((1-hydroxycyclopropyl)methyl)amino)pyrimidin-5-yl)ethynyl)phenyl)-3-(hydroxymethyl)-2-methoxybenzenesulfonamide] | – | 70% | – | –
